What was measured:
[1] = molecular target: T1, Muscarinic acetylcholine receptor M1 (Homo sapiens) (UniProt P11229); assay: Agonist activity at muscarinic M1 receptor relative to carbachol; format: functional
T1 sequence (whole entry): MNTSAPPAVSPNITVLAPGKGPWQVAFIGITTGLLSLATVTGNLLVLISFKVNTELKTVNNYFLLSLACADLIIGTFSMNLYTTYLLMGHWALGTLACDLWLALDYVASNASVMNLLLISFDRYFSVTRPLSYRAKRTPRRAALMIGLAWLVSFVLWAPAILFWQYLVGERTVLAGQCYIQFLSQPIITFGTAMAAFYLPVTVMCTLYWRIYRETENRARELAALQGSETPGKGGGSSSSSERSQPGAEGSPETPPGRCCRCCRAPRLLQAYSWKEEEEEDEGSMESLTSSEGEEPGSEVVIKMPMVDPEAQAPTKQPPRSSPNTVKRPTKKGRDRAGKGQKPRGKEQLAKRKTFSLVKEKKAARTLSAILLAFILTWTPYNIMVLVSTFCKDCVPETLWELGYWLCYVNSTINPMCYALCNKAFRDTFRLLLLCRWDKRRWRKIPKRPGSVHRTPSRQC

[2] = molecular target: T2, Muscarinic acetylcholine receptor M5 (Homo sapiens, UniProt P08912); assay: Agonist activity at muscarinic M5 receptor; format: functional
T2 sequence (P08912 whole entry): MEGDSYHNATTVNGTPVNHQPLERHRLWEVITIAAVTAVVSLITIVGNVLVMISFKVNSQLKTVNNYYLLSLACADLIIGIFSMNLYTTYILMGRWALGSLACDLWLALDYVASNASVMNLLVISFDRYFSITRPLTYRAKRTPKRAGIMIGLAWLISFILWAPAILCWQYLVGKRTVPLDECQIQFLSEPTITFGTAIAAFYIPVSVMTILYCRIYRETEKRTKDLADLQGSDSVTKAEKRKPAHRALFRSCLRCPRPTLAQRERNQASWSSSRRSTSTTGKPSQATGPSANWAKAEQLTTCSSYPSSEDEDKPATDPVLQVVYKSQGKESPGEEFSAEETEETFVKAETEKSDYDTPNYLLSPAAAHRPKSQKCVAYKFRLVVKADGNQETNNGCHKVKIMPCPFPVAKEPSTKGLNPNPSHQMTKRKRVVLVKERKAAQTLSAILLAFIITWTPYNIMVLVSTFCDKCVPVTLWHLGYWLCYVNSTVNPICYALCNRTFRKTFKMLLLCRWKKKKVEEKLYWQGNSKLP

[3] = molecular target: T3, Muscarinic acetylcholine receptor M2 (Homo sapiens, UniProt P08172); assay: Agonist activity at muscarinic M2 receptor; format: functional
T3 sequence (P08172 whole entry): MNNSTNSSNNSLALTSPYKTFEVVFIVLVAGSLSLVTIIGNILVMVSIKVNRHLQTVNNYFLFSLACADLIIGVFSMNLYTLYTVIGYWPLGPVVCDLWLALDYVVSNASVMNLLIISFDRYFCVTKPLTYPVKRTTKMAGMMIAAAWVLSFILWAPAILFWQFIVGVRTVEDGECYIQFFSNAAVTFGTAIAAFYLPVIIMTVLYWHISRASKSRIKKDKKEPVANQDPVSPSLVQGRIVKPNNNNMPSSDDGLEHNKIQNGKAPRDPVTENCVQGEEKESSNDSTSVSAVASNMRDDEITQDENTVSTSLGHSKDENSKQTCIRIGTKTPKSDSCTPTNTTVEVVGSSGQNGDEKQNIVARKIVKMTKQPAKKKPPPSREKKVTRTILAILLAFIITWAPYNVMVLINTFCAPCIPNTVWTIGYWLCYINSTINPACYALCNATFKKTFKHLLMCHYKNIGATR

[4] = molecular target: T4, D(2) dopamine receptor (Homo sapiens, UniProt P14416); assay: Inhibition of dopamine D2 receptor at 10 uM; parameters: scale not given: the % may be the effect or the level left
[5] = molecular target: T5, Muscarinic acetylcholine receptor M4 (Homo sapiens, UniProt P08173); assay: Agonist activity at muscarinic M4 receptor; format: functional
T5 sequence (P08173 whole entry): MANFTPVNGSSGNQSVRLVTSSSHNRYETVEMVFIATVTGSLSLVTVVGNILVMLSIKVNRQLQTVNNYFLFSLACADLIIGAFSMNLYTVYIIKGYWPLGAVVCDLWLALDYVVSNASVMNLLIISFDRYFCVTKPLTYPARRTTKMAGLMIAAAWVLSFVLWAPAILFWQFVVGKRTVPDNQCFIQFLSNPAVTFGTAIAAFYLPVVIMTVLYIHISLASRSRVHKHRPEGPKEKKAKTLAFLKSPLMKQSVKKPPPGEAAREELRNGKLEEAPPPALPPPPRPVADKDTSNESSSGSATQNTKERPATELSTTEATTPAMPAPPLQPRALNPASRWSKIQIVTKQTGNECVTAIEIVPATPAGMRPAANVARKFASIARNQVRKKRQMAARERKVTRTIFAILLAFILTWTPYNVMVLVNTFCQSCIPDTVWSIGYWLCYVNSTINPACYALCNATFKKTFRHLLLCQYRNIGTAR

[6] = molecular target: T6, Muscarinic acetylcholine receptor M1 (Homo sapiens, UniProt P11229); assay: Agonist activity at muscarinic M1 receptor; format: functional
T6 sequence (P11229 whole entry): T1 sequence (whole entry)

[7] = molecular target: Muscarinic acetylcholine receptor M3 (Homo sapiens, UniProt P20309); assay: Agonist activity at muscarinic M3 receptor; format: functional
[8] = molecular target: T4, D(2) dopamine receptor; assay: Inhibition of dopamine D2 receptor
[9] = molecular target: T7, Muscarinic acetylcholine receptor M2 (Homo sapiens) (UniProt P08172); assay: Agonist activity at muscarinic M2 receptor relative to carbachol; format: functional
T7 sequence (whole entry): T3 sequence (P08172 whole entry)

[10] = molecular target: T8, Muscarinic acetylcholine receptor M4 (Homo sapiens) (UniProt P08173); assay: Agonist activity at muscarinic M4 receptor relative to carbachol; format: functional
T8 sequence (whole entry): T5 sequence (P08173 whole entry)

[11] = molecular target: T9, Muscarinic acetylcholine receptor M5 (Homo sapiens) (UniProt P08912); assay: Agonist activity at muscarinic M5 receptor relative to carbachol; format: functional
T9 sequence (whole entry): T2 sequence (P08912 whole entry)

Muscarinic acetylcholine receptor M3, sequence (P20309 whole entry): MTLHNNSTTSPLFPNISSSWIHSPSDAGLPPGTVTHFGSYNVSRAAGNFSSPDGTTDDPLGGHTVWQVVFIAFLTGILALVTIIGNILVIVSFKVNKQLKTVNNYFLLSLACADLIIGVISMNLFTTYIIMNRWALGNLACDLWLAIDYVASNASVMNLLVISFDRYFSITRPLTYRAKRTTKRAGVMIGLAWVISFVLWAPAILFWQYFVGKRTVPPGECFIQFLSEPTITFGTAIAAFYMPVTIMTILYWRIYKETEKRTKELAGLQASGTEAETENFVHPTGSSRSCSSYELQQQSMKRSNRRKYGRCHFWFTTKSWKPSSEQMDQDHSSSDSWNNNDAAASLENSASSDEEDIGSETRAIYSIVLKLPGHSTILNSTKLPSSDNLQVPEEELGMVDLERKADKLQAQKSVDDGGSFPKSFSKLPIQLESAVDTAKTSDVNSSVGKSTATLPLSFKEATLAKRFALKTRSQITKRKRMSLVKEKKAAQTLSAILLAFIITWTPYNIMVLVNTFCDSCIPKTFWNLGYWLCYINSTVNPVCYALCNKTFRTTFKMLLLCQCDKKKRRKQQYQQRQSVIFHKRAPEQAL
T4 sequence (P14416 whole entry): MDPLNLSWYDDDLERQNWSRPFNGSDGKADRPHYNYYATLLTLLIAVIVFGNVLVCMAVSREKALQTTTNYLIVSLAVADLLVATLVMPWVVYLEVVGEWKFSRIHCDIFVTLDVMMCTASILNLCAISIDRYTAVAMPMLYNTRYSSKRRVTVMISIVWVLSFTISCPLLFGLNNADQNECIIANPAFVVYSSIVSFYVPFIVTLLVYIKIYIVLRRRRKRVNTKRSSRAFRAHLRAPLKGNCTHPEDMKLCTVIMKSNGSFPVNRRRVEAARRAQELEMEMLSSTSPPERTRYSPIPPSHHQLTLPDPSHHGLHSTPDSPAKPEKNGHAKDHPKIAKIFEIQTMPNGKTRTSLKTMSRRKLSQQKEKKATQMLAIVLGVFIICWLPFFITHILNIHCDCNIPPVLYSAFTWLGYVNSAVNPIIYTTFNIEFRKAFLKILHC

SMILES	Activity [1] [%]	EC50 [2] [µM]	EC50 [3] [µM]	Activity [4] [%]	EC50 [5] [µM]	EC50 [6] [µM]	EC50 [7] [µM]	IC50 [8] [µM]	Activity [9] [%]	Activity [10] [%]	Activity [11] [%]
Cc1ccccc1CN1CCC(N2CCC(n3c(=O)[nH]c4cc(Cl)ccc43)CC2)CC1	84	> 50	> 50	35	> 50	1.03	> 50	–	–	–	–
N#Cc1ccccc1CN1CCC(N2CCC(n3c(=O)[nH]c4cc(Cl)ccc43)CC2)CC1	27	> 50	> 50	–	> 50	1.6	> 50	–	–	–	–
Cc1ccccc1CN1CCC(N2CCC(n3c(=O)[nH]c4ccccc43)CC2)CC1	82	> 50	> 50	–	–	–	–	2.65	–	–	–
N#Cc1ccccc1CN1CCC(N2CCC(n3c(=O)[nH]c4ccccc43)CC2)CC1	23	> 50	> 50	40	> 50	0.49	> 50	–	–	–	–
O=c1[nH]c2cc(F)ccc2n1C1CCN(C2CCN(Cc3ccccc3C(F)(F)F)CC2)CC1	80	> 50	> 50	–	> 50	–	> 50	2.69	–	–	–
CCOC(=O)N1CCC(N2CCC(n3c(=O)[nH]c4ccccc43)CC2)CC1	–	0.0343	0.0119	–	0.0091	–	–	> 10	80.6	96.9	50.8
O=c1[nH]c2cc(Cl)ccc2n1C1CCN(C2CCN(Cc3ccccc3[N+](=O)[O-])CC2)CC1	42	> 50	> 50	–	> 50	1.1	> 50	–	–	–	–
Cc1ccccc1CN1CCC(N2CCC(n3c(=O)[nH]c4ccc(F)cc43)CC2)CC1	84	> 50	> 50	–	> 50	–	> 50	> 10	–	–	–
O=c1[nH]c2c(F)cccc2n1C1CCN(C2CCN(Cc3ccccc3C(F)(F)F)CC2)CC1	75	> 50	> 50	–	> 50	–	> 50	> 10	–	–	–
Cc1ccccc1CN1CCC(N2CCC(n3c(=O)[nH]c4c(F)cccc43)CC2)CC1	73	> 50	> 50	–	> 50	–	> 50	> 10	–	–	–
Cc1ccccc1CN1CCC(N2CCC(n3c(=O)[nH]c4cc(F)ccc43)CC2)CC1	85	> 50	> 50	40	> 50	–	> 50	–	–	–	–
O=c1[nH]c2cc(Cl)ccc2n1C1CCN(C2CCN(Cc3ccccc3C(F)(F)F)CC2)CC1	83	> 50	> 50	–	> 50	1.5	> 50	–	–	–	–
O=c1[nH]c2ccc(F)cc2n1C1CCN(C2CCN(Cc3ccccc3C(F)(F)F)CC2)CC1	–	> 50	> 50	–	> 50	–	> 50	> 10	–	–	–
O=c1[nH]c2ccccc2n1C1CCN(C2CCN(Cc3ccccc3Cl)CC2)CC1	44	> 50	> 50	–	> 50	0.26	> 50	2.06	–	–	–
O=c1[nH]c2cc(Cl)ccc2n1C1CCN(C2CCN(Cc3ccccc3Cl)CC2)CC1	49	> 50	> 50	–	> 50	1.8	> 50	–	–	–	–
O=c1[nH]c2ccccc2n1C1CCN(C2CCN(Cc3ccccc3[N+](=O)[O-])CC2)CC1	48	> 50	> 50	–	> 50	0.12	> 50	1.13	–	–	–
O=c1[nH]c2cc(Cl)ccc2n1C1CCN(C2CCN(Cc3ccccc3)CC2)CC1	74	> 50	> 50	35	> 50	0.356	> 50	–	–	–	–
O=c1[nH]c2ccccc2n1C1CCN(C2CCN(Cc3ccccc3C(F)(F)F)CC2)CC1	–	> 50	> 50	30	> 50	0.41	> 50	–	–	–	–

Source: ChEMBL document CHEMBL1142444 (Bioorg Med Chem Lett, 2008)
